One test addresses DNA polymerase β (Rattus norvegicus, UniProt P06766). As to the kind of experiment: Kinetic analysis of pol. β inhibition. Format: biochemical. As to conditions: for Inhibitory mode: from Lineweaver Burk plot.
The next test concerns the target E. coli DNA polymerase I (Escherichia coli, UniProt P00582). Put plainly: E. coli DNA polymerase I activity assay. Type of test: biochemical. To be noted: 20 µM compound, 0.05 units enzyme; Fig. 3.
Another test concerns the target T1, T4 DNA polymerase (Enterobacteria phage T4, UniProt P04415).
T1 sequence (P04415 1-898): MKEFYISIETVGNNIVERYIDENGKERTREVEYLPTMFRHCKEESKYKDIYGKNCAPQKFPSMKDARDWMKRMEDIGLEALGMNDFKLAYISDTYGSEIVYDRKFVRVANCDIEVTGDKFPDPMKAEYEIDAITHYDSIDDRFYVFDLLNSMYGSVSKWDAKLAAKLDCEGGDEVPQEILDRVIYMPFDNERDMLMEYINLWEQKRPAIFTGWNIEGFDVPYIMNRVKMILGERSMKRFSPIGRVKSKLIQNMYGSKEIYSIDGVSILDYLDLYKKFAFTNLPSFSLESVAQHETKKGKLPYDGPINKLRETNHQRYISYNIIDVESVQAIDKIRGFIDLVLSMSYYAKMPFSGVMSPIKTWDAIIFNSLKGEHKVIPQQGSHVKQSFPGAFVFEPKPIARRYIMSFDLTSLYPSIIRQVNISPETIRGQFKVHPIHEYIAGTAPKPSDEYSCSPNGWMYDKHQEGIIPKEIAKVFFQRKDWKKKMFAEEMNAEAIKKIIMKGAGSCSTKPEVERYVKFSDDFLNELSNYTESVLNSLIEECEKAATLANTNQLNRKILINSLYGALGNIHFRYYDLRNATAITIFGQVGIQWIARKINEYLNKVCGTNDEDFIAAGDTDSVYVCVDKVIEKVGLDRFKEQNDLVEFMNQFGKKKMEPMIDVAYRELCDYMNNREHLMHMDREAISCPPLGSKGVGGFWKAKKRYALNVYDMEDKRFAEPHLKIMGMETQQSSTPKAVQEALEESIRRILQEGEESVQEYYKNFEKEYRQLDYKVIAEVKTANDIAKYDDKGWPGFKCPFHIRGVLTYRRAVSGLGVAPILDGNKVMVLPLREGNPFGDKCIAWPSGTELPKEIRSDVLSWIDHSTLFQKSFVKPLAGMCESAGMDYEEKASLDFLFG
As to the kind of experiment: T4 DNA polymerase activity assay. Format: biochemical. As to conditions: 20 µM compound, 0.05 units enzyme; Fig. 3.

A further test deals with Taq DNA polymerase (Thermus aquaticus, UniProt P19821). Put plainly: Taq DNA polymerase activity assay. Format: biochemical. To be noted: 20 µM compound, 0.05 units enzyme; Fig. 3.
The target of the next test is T4 polynucleotide kinase (Enterobacteria phage T4, UniProt P06855). As to conditions: 20 µM compound, 0.05 units enzyme; Fig. 3.

Structures are written as SMILES.

The Ki is a measure of affinity in units of concentration, obtained from inhibition or displacement. The term Vmax denotes the rate approached at saturating substrate.

E. coli DNA polymerase I, sequence (P00582 whole entry): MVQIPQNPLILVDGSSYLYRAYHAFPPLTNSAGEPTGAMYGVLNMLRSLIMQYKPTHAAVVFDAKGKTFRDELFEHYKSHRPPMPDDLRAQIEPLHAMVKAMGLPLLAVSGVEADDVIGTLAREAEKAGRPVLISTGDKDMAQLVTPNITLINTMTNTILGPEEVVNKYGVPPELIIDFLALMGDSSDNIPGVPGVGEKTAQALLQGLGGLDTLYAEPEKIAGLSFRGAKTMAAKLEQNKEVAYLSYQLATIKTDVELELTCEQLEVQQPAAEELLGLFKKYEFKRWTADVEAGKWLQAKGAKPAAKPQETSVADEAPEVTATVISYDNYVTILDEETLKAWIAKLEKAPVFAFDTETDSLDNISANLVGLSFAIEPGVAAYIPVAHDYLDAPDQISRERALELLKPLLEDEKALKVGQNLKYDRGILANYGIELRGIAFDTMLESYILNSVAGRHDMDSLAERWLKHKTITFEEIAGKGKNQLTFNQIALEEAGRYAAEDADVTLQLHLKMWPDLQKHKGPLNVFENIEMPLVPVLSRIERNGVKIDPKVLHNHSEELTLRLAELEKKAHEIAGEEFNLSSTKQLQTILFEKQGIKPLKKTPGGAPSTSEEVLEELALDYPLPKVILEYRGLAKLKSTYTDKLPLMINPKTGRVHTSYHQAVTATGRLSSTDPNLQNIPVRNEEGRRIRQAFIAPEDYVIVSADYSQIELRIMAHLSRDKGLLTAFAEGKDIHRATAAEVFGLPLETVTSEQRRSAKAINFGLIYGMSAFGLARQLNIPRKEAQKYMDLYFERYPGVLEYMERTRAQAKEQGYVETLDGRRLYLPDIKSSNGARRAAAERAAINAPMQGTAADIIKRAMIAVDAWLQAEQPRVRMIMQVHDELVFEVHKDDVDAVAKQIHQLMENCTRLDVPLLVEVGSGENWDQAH
T4 polynucleotide kinase, sequence (P06855 whole entry): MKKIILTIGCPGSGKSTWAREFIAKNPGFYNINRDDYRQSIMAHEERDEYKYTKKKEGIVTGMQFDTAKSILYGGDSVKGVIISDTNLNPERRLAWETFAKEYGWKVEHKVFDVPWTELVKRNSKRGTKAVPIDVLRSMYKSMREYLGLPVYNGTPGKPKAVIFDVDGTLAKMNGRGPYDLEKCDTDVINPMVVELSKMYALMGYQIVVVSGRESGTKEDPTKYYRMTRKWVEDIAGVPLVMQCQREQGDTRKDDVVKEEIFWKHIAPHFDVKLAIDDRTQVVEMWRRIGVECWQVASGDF
Taq DNA polymerase, sequence (P19821 whole entry): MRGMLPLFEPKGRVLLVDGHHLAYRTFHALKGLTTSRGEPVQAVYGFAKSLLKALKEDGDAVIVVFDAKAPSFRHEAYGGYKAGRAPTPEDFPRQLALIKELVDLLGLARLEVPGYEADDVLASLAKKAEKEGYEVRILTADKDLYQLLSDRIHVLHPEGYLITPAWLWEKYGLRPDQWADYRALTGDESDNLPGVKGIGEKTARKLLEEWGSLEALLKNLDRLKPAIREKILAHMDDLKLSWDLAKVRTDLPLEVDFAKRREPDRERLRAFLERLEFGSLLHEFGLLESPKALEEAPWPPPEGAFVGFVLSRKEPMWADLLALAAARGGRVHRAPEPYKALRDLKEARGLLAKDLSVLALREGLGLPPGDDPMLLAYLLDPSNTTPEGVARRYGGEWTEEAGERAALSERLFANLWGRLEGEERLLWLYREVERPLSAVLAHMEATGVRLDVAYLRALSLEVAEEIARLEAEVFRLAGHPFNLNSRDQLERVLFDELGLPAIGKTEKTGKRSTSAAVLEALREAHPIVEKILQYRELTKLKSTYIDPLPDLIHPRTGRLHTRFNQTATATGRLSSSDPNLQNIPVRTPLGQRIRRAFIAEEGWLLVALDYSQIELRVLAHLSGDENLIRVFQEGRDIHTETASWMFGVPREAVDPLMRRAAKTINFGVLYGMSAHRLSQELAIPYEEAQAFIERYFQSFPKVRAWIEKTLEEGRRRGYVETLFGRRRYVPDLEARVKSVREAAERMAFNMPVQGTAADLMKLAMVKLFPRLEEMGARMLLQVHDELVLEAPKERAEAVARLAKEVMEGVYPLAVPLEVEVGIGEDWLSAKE

As to `CCCCCCCCCCCCCCCCCC(=O)OC[C@H](CO[C@H]1O[C@H](CS(=O)(=O)O)[C@@H](O)[C@H](O)[C@H]1O)OC(=O)CCCCCCCCCCCCCCCCC` [C18--SQDG], the Ki at DNA polymerase β (nucleotide substrate dTTP, from Dixon plot) amounted to 36 µM; at DNA polymerase β (template-primer poly(dA)/oligo(dT)12-18, from Dixon plot), 5 µM. Besides, the Vmax at DNA polymerase β (nucleotide substrate dTTP, one value printed for all sulfolipid conc.) worked out at 38 pmol/h. In addition, the Inhibitory mode result on DNA polymerase β (versus nucleotide substrate dTTP) and at DNA polymerase β (versus template-primer) was “Competitive” each time. Moreover, the “Effect on E. coli DNA polymerase I activity” value at E. coli DNA polymerase I was “hardly affected”. Also, at T4 DNA polymerase, the “Effect on T4 DNA polymerase activity” value is reported as “hardly affected”. The “Effect on Taq DNA polymerase activity” value at Taq DNA polymerase is listed as “hardly affected”. Also, at T4 polynucleotide kinase, the “Effect on T4 polynucleotide kinase activity” value is listed as “hardly affected”.

The record behind these values is publication PMC5926251 (Japanese Journal of Cancer Research : Gann, 2000).
